Results on 21 molecules are retold here after US6696476B2, “Pyranoindazoles and their use for the treatment of glaucoma” (Alcon, Inc., priority 2001, dated 2004).

What is called IC50 is the concentration at which inhibition is half-maximal. The melting point is the temperature, or range, at which the solid turns liquid. As a reminder, the EC50 is the concentration at which the effect is half-maximal. A lower EC50 goes with greater potency. As a reminder, the Emax is the size of the effect at its maximum, as opposed to the concentration needed.

The structures appear in SMILES notation. Counter-ions that a name gives are not always drawn. Like-named read-outs stand apart in the source and are kept apart here.

The target in series [1] is T1, 5-HT2A Receptor (Rattus norvegicus, UniProt P14842). As to the kind of experiment: 5-HT2 Receptor Binding Assay ([125I]DOI competition). Also noted: species or system rat or human. The settings on record: 5-HT2A receptor binding; [125I]DOI displacement, cerebral cortex homogenates. The procedure:
Aliquots of post mortem rat or human cerebral cortex homogenates (400 μL) dispersed in 50 mM Tris HCl buffer (pH 7.4) are incubated with [^125I]DOI (80 pM final) in the absence or presence of methiothepin (10 μM final) to define total and non-specific binding, respectively, in a total volume of 0.5 mL. The assay mixture is incubated for 1 hour at 23° C. in polypropylene tubes and the assays terminated by rapid vacuum filtration over Whatman GF/B glass fiber filters previously soaked in 0.3% polyethyleneimine using ice-cold buffer. Test compounds (at different concentrations) are substituted for methiothepin. Filter-bound radioactivity is determined by scintillation spectrometry on a beta counter. The data are analyzed using a non-linear, iterative curve-fitting computer program [Trends Pharmacol. Sci., 16, 413 (1995)] to determine the compound affinity parameter. The concentration of the compound needed to inhibit the [^125I]DOI binding by 50% of the maximum is termed the IC50 or Ki value.

In series [2] the target is T1, 5-HT2A Receptor. As to the kind of experiment: 5-HT2 Functional Assay: [Ca2+]i Mobilization (FLIPR, A7r5 cells). Format: cell-based. Set-up: endogenous in cells; host or cells: A7r5 rat vascular smooth muscle cells. The conditions noted are these: for EC50: [Ca2+]i mobilization, A7r5 rat vascular smooth muscle cells; for Emax: read-out: Efficacy (Emax, %). The procedure:
The receptor-mediated mobilization on intracellular calcium ([Ca^2+]i) was studied using the Fluorescence Imaging Plate Reader (FLIPR) instrument. Rat vascular smooth muscle cells, A7r5, were grown in a normal media of DMEM/10% FBS and 10 μg/mL gentamycin. Confluent cell monolayers were trypsinized, pelleted, and re-suspended in normal media. Cells were seeded in a 50 μL volume at a density of 20,000 cells/well in a black wall, 96-well tissue culture plate and grown for 2 days.
On the day of the experiment, one vial of FLIPR Calcium Assay Kit dye was re-suspended in 50 mL of a FLIPR buffer consisting of Hank's Balanced Salt Solution (HBSS), 20 mM HEPES, and 2.5 mM probenecid, pH 7.4. Cells were loaded with the calcium-sensitive dye by addition of an equal volume (50 μL) to each well of the 96-well plate and incubated with dye for 1 h at 23° C.
Compounds were diluted 1:50 in 20% DMSO/20% Ethanol. For “hit” screening, compounds were further diluted 1:10 in FLIPR buffer and tested at a final concentration of 10 μM.
The compound plate and cell plate were placed in the FLIPR instrument. At the beginning of an experimental run, a signal test was performed to check the basal fluorescence signal from the dye-loaded cells and the uniformity of the signal across the plate. The basal fluorescence was adjusted between 8000-12000 counts by modifying the exposure time, the camera F-stop, or the laser power. Instrument settings for a typical assay were the following: laser power 0.3-0.6 W, camera F-stop F/2, and exposure time 0.4 sec. An aliquot (25 μL) of the test compound was added to the existing 100 μL dye-loaded cells at a dispensing speed of 50 μL/sec. Fluorescence data were collected in real-time at 1.0 sec intervals for the first 60 secs and at 6.0 sec intervals for an additional 120 secs.

Another series has as its system intraocular pressure. In words: IOP Response in Conscious Cynomolgus Monkeys. Format: in vivo.
For series [3], the system named is IOP. The conditions noted are these: monkey; attributed to α1A receptor activity; cited from earlier work.
The subject of series [4] is IOP. The conditions noted are these: rabbits; cited from earlier work.
Setting [5] is: percentage of a maximum 5-HT-induced response, A7r5 cells.
Where [6] appears, read: 3 hours after dose, dose 300 μg.
The mark [7] stands for this setting: 6 hours after dose, dose 300 μg.

T1 sequence (P14842 whole entry): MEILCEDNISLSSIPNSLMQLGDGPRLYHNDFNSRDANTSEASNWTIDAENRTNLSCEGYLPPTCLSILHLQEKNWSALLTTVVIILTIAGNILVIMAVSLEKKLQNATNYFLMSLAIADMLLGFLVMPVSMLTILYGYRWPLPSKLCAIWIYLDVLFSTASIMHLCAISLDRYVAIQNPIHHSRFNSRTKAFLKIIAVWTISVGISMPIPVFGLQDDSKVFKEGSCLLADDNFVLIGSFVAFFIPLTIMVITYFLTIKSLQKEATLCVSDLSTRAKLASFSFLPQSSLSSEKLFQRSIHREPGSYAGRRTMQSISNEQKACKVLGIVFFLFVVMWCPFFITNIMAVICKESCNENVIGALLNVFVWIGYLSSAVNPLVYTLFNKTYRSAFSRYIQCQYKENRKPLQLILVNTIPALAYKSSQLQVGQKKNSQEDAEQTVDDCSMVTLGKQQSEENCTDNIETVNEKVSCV

As to `C[C@H](N)Cn1ncc2ccc3c(c21)CCCO3.Cl.Cl` [Example 8, (S)-2-(8,9-Dihydro-7H-pyrano[2,3-g]indazol-1-yl)-1-methyl-ethylamine Dihydrochloride], the melting point fell in the range of 95 to 98 °C. The IC50 on 5-HT2A Receptor [1] turned out to be 0.000686 µM. The molecule also returned an EC50 at 5-HT2A Receptor [2] of 0.09 µM. At 5-HT2A Receptor [2] (setting [5]), the Emax turned out to be 85%.

As for `C[C@H](N)Cn1ncc2ccc3c(c21)C[C@@H](O)CO3` [Example 4, (R)-1-((S)-2-Aminopropyl)-1,7,8,9-tetrahydro-pyrano[2,3-g]indazol-8-ol], the melting point was 126 to 128 °C. This molecule returned an IC50 at 5-HT2A Receptor [1] of 0.00225 µM. For the same molecule, the “Percent IOP Reduction ± SEM” value in the series on intraocular pressure (1 hour after dose, dose 300 μg) stood at 7.68 ± 2.91%. Also, in the series on intraocular pressure (setting [6]), the “Percent IOP Reduction ± SEM” value amounted to 25.8 ± 3.53%. Besides, the “Percent IOP Reduction ± SEM” value in the series on intraocular pressure (setting [7]) is reported as 30.2 ± 4.48%. The molecule also showed an EC50 on 5-HT2A Receptor [2] of 0.0653 µM. In addition, the maximal response (Emax) at 5-HT2A Receptor [2] (setting [5]) was 92%.

The molecule `C[C@H](N)Cn1ncc2ccc3c(c21)[C@H](O)[C@H](O)CO3` (relative stereo) [Example 7, (8R*,9S*)-1-((S)-2-Amino-propyl)-1,7,8,9-tetrahydro-pyrano[2,3-g]indazole-8,9-diol] had a melting point of 115 to 117 °C. In addition, the IC50 on 5-HT2A Receptor [1] came out at 0.00373 µM. At 5-HT2A Receptor [2], this molecule returned an EC50 of 0.194 µM. At 5-HT2A Receptor [2] (setting [5]), the Emax came out at 85%.

In the case of `COc1ccccc1N1CCN(CCCNc2c(C)c(=O)n(C)c(=O)n2C)CC1` [5-methylurapidil], in the series with IOP [3], the “effect on IOP” value is given as “lowers IOP”.

`C[C@H](N)Cn1ncc2ccc3c(c21)C[C@@H](OCCO)CO3.Cl.Cl` [Example 13, 2-[(R)-1-((S)-2-Aminopropyl)-1,7,8,9-tetrahydro-pyrano[2,3-g]indazol-8-yloxy]-ethanol Dihydrochloride]: the melting point was > 100 °C. Also, on 5-HT2A Receptor [1], the half-maximal inhibitory concentration (IC50) was found to be 0.00338 µM. Further, in the series on intraocular pressure (1 hour after dose, dose 300 μg), the “Percent IOP Reduction ± SEM” value stood at 8.3 ± 2.64%. In the series with intraocular pressure (setting [6]), the “Percent IOP Reduction ± SEM” value was 21.4 ± 4.18%. Further, the “Percent IOP Reduction ± SEM” value with intraocular pressure (setting [7]) was 28.4 ± 3.36%. At 5-HT2A Receptor [2], the midpoint of the response, the EC50, lay at 0.121 µM. Further, the Emax at 5-HT2A Receptor [2] (setting [5]) turned out to be 87%.

On to `C[C@H](N)Cn1ncc2ccc3c(c21)CC(O)CO3` (stereo partly drawn) [Example 3, 1-((S)-2-Aminopropyl)-1,7,8,9-tetrahydro-pyrano[2,3-g]indazol-8-ol], for which the melting point lay in the range of 46 to 51 °C. At 5-HT2A Receptor [1], this molecule returned an IC50 of 0.00219 µM. The molecule also showed an EC50 on 5-HT2A Receptor [2] of 0.145 µM. Moreover, the Emax at 5-HT2A Receptor [2] (setting [5]) was determined as 85%.

As to `C[C@H](N)Cn1ncc2ccc3c(c21)C[C@@H](N)CO3.Cl.Cl.Cl` [Example 6, (R)-1-((S)-2-Amino-propyl)-1,7,8,9-tetrahydro-pyrano[2,3-g]indazol-8-ylamine Trihydrochloride], the melting point was > 300 °C. This molecule also displayed a half-maximal inhibitory concentration (IC50) at 5-HT2A Receptor [1] of 0.00656 µM. In addition, the EC50 at 5-HT2A Receptor [2] stood at 0.175 µM. On 5-HT2A Receptor [2] (setting [5]), the Emax was found to be 87%.

As to `NCCc1c[nH]c2ccc(O)cc12` [Example 5-HT, 5-Hyroxytryptamine, reference compound], on 5-HT2A Receptor [2] (setting [5]), the “Efficacy (Emax, %)” value was determined as 101%.

On 5-HT2A Receptor [1], `C[C@H](N)Cc1n[nH]c2ccc3c(c12)CCCO3` [Example 17, (S)-1-Methyl-2-(3,7,8,9-tetrahydro-pyrano[3,2-e]indazol-1-yl)-ethylamine] came in with an IC50 of 0.00079 µM. The same molecule came in with an EC50 on 5-HT2A Receptor [2] of 0.154 µM. Besides, the Emax on 5-HT2A Receptor [2] (setting [5]) was determined as 88%.

Regarding `COc1cc(C[C@@H](C)N)c(OC)cc1I` [(R)-DOI, reference compound], the “Percent IOP Reduction ± SEM” value is 11.0 ± 4.98% with intraocular pressure (1 hour after dose, dose 100 μg); 25.3 ± 2.97% in the series on intraocular pressure (3 hours after dose, dose 100 μg); 34.4 ± 4.98% with intraocular pressure (6 hours after dose, dose 100 μg).

`C[C@@H](N)Cn1ncc2ccc3c(c21)CC(O)CO3.Cl` (stereo partly drawn) came in with a melting point of 82 to 86 °C.

The molecule `C[C@H](N)Cn1ncc2ccc3c(c21)C=CCO3` [Example 9, (S)-1-Methyl-2-(7H-pyrano[2,3-g]indazol-1-yl)-ethylamine] yielded an IC50 on 5-HT2A Receptor [1] of 0.000274 µM. The EC50 at 5-HT2A Receptor [2] is 0.0414 µM. In addition, on 5-HT2A Receptor [2] (setting [5]), the Emax was determined as 91%.

Regarding `CC(=O)NCCO[C@H]1COc2ccc3cnn(C[C@H](C)N)c3c2C1` [Example 14, N-[2-[(R)-1-((S)-2-Aminopropyl)-1,7,8,9-tetrahydropyrano[2,3-g]indazol-8-yloxy]-ethyl]acetamide], the melting point lay in the range of 165 to 166 °C. Also, the IC50 on 5-HT2A Receptor [1] stood at 0.00534 µM. On 5-HT2A Receptor [2], this molecule showed an EC50 of 0.202 µM. Further, on 5-HT2A Receptor [2] (setting [5]), the Emax was found to be 86%.

In turn, `C[C@H](N)Cn1ncc2ccc3c(c21)C[C@@H](OCC(=O)OC(C)(C)C)CO3` [Example 16, [(R)-1-((S)-2-Amino-propyl)-1,7,8,9-tetrahydro-pyrano[2,3-g]indazol-8-yloxy]acetic Acid Tert-butyl Ester Dihydrochloride] came in with an IC50 on 5-HT2A Receptor [1] of 0.00194 µM. Moreover, a half-maximal response at 5-HT2A Receptor [2] (EC50) required 0.424 µM. Further, the Emax on 5-HT2A Receptor [2] (setting [5]) is 73%.

For `COC1c2c(ccc3cnn(C[C@H](C)N)c23)OCC1O` (stereo partly drawn), the melting point lay in the range of 105 to 108 °C.

As for `CCCN(CCC)C1CCc2cccc(O)c2C1` (stereo not drawn) [Example 8-OH-DPAT, 8-hydroxydipropylaminotetralin], in the series with IOP [4], the “effect on IOP” value is recorded as “reduces IOP”.

Turning to `C[C@H](N)Cn1ncc2ccc3c(c21)C[C@@H](OCC(N)=O)CO3` [Example 15, 2-[(R)-1-((S)-2-Aminopropyl)-1,7,8,9-tetrahydro-pyrano[2,3-g]indazol-8-yloxy]-acetamide], the IC50 on 5-HT2A Receptor [1] stood at 0.00287 µM. The molecule further yielded an EC50 on 5-HT2A Receptor [2] of 0.178 µM. Moreover, the Emax on 5-HT2A Receptor [2] (setting [5]) came out at 95%.

`CC(N)Cn1ncc2ccc3c(c21)CC(O)CO3` (stereo not drawn) displayed a melting point of 124 to 125 °C.

Turning to `C[C@H](N)Cc1n[nH]c2ccc3c(c12)CCCO3` (as salt: hydrochloride) [Example 17, (S)-1-Methyl-2-(3,7,8,9-tetrahydro-pyrano[3,2-e]indazol-1-yl)-ethylamine], the melting point is 235 to 240 °C.

`C[C@H](N)Cn1ncc2ccc3c(c21)C[C@H](O)CO3` [Example 5, (S)-1-((S)-2-Aminopropyl)-1,7,8,9-tetrahydro-pyrano[2,3-g]indazol-8-ol] displayed an IC50 at 5-HT2A Receptor [1] of 0.00344 µM. Also, the “Percent IOP Reduction ± SEM” value in the series on intraocular pressure (1 hour after dose, dose 300 μg) came to 7.9 ± 4.06%; with intraocular pressure (setting [6]) it was 17.3 ± 3.87%; in the series with intraocular pressure (setting [7]) it was 25.1 ± 4.76%. This molecule also registered an EC50 at 5-HT2A Receptor [2] of 0.226 µM. The Emax at 5-HT2A Receptor [2] (setting [5]) came out at 70%.

As for `C[C@H](N)Cn1ncc2ccc3c(c21)C(N)C(O)CO3` (stereo partly drawn), the melting point was 84 to 88 °C.
